Key:
Assay type in all cases: physicochemical
[1] = Passive release of encapsulated cargo via dialysis; details: drug-loaded NIR-nanogel, dialysis against MilliQ/DI water; for passive leeching of cargo (concentration loss): three hours
Procedure: FIG. 10A-D. Passive release of encapsulated a) cisplatin b) gefitinib c) GW9662 and d) Paclitaxel via dialysis for 0, 1, 2, and 4 hours against DI water.
After extensive screening, we obtained an optimized procedure that yielded reliable encapsulation results for each drug. We discovered that slow addition (versus bolus addition) of the drug to NIR-nanogel samples was essential to maintain a homogeneous suspension of the particles in solution. Further, the inclusion of at least 10% ethanol as a solubilizing co-solvent was necessary for drug encapsulation. […] After removal of non-encapsulated drug, we established a method to assess passive leeching of the contents by dialyzing the drug-loaded sample against MilliQ water. Small aliquots were removed at various time points and compared to the initial cargo concentration. […] In general, the extent of passive cargo loss was determined by placing a photobleached sample of each drug-loaded NIR-nanogel in 3 kDa MWCO dialysis tubing for dialysis against DI water. Aliquots were taken to determine the absorbance at various time points for comparison against the corresponding calibration curve.

[2] = Absorption spectrum and extinction coefficient in DMSO
Excerpt: With the various components in hand, we turned our attention to testing whether the amide moiety would impact the photophysical properties of the cyanine core. First, we analyzed the absorption spectrum and measured the extinction coefficient of Cy780-Acryl. Compared to the Cy7-Cl reference in DMSO, the λmax (831 nm cf. 793 nm) and extinction coefficients (1.11×10^5 M^−1cm^−1 cf. 1.23×10^5 M^−1cm^−1) were similar. Next, we evaluated the photostability of the crosslinker. When Cy780-Acryl (as well as Cy780-Acetamido) was irradiated with a LED light source at 780 nm (300 mW power output, 47.3 μW/mm^2 maximum irradiance), we found complete degradation of the molecule after only 25 minutes based on the disappearance of the NIR absorbance band (FIG. 2). […] Of note, when dissolved oxygen was removed prior to the initiation of photobleaching, we found the change in absorbance to be minimal, supporting the proposed dioxetane mechanism (FIG. 4). Indeed, the anticipated carbonyl fragmentation products were detected via LC-MS when samples were irradiated in the presence of oxygen (FIG. 5).
^1H and ^13C NMR spectra were acquired on a Varian 500 or Carver B500 spectrometer. […] Spectra were visualized and analyzed using MestReNova (version 14.2) and referenced to trace non-deuterated solvent. […]

[3] = Photobleaching under 780 nm LED irradiation (NIR absorbance)
Procedure: FIG. 2. […] Time points=0, 15, 30 mins. Samples were irradiated with a LED light source at 780 m, (300 mW power output, 47.3 μW/mm^2 maximum irradiance).
FIG. 3. Absorption measurements of a 25 μM solution of a) Cy7-Cl and b) Cy780-Acryl when irradiated with a 780 nm LED light. Time points=0, 15, 30 mins. Samples were irradiated with a LED light source at 780 m, (300 mW power output, 47.3 μW/mm^2 maximum irradiance).
FIG. 4. Absorption measurements of a NIR-nanogel sample without dissolved oxygen when irradiated with a 780 nm LED light. Time points=0, 15, 30, 45, 60, 75, 90 mins. Samples were irradiated with a LED light source at 780 m, (300 mW power output, 47.3 μW/mm^2 maximum irradiance).
Time points=0, 15, 30, 45, 60, 90, 120, 150, 180 mins. b) Diameter of NIR-nanogels with and without NIR light irradiation measured via dynamic light scattering (left) and scanning electron microscopy (right). […] (n=300 for SEM) Scale bar represents 500 nm. e) Normalized absorbance of nanogels exposed to biologically relevant reactive species. f) Normalized absorbance of nanogels suspended in Britton-Robinson buffer (pH 4.2 to 12.0). […]
With the various components in hand, we turned our attention to testing whether the amide moiety would impact the photophysical properties of the cyanine core. First, we analyzed the absorption spectrum and measured the extinction coefficient of Cy780-Acryl. […]

SMILES | passive release of cargo (result in words) [1] | passive leeching of cargo (concentration loss) [1] | other results
CC(=O)O[C@H]1C(=O)[C@@]2(C)[C@H]([C@H](OC(=O)c3ccccc3)[C@]3(O)C[C@H](OC(=O)[C@H](O)[C@@H](NC(=O)c4ccccc4)c4ccccc4)C(C)=C1C3(C)C)[C@]1(OC(C)=O)CO[C@@H]1C[C@@H]2O [paclitaxel] | minimal leeching | – | –
O=C(Nc1ccccc1)c1cc([N+](=O)[O-])ccc1Cl [GW9662] | no passive release | – | –
N.N.[Cl][Pt][Cl] [cisplatin] | – | ~ 50% | –
C=CC(=O)Nc1ccc2c(c1)C(C)(C)C(/C=C/C1=C(Cl)C(=C/C=C3/N(CC)c4ccc(NC(=O)C=C)cc4C3(C)C)/CCC1)=[N+]2CC [Cy780-Acryl] | – | – | extinction coefficient [2]: 111000 M⁻¹ cm⁻¹; λmax [2]: 831 nm; change in absorbance on irradiation without dissolved oxygen ([3]; 780 nm LED, dissolved oxygen removed prior to photobleaching): minimal; time to complete degradation (disappearance of the NIR absorbance band) ([3]; LED 780 nm, 300 mW power output, 47.3 μW/mm^2 maximum irradiance): 25 min
COc1cc2ncnc(Nc3ccc(F)c(Cl)c3)c2cc1OCCCN1CCOCC1 [gefitinib] | – | ~ 6% | –

— patent publication US20260345834A1, “NIR-LIGHT ACTIVATABLE NANOGEL DELIVERY SYSTEM” (THE BOARD OF TRUSTEES OF THE UNIVERSITY OF ILLINOIS, priority 2022, published 2026)
